# Test results taken from paper PMC6731595, “The anti-parasitic agent suramin and several of its analogues are inhibitors of the DNA binding protein Mcm10” (Open Biology, 2019).
# {FAM} = 6-carboxyfluorescein (6FAM) label
# Experiments:
# hMcm10-ID = target: T1, hMcm10-ID (Homo sapiens, UniProt Q7L590); assay: FP saturation binding of probe to hMcm10-ID; conditions: probe 12.5 nM, mean ± SEM, n = 3
# T1 construct: hMcm10-ID (residues 237 to 436) were expressed in E. coli strain BL21(DE3); 6xHis (HRV 3C site) (N, cleaved yes); made in house; host or cells: E. coli BL21(DE3)
# T1 sequence (Q7L590 237-436): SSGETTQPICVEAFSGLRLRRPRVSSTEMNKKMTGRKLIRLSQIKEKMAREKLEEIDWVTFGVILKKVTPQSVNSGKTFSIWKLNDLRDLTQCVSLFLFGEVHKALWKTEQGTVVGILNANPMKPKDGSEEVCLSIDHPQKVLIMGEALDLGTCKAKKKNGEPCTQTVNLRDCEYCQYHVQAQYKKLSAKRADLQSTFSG
# Method: (§1) The LOPAC pilot screen identified the sulfhydryl reagent 4-chloromercuribenzoic acid as an inhibitor in the fluorescence polarization (FP) assay. As there was no known Mcm10 inhibitor, 4-chloromercuribenzoic acid (30 μM) was used as a positive control on initial screening plates. Following the discovery of suramin as a Mcm10 inhibitor, suramin (7 μM) was used as a positive control on subsequent screening plates. To confirm activity, screening hits were tested in dose response experiments (8 concentrations in duplicate) using xMcm10-ID. Similar dose response experiments were conducted with suramin and its analogs to confirm activity for hMcm10-ID (1 μM) and xMcm10-FL (2 μM) and to determine selectivity relative to RPA70AB (0.4 μM). […] FP was measured in mP units, and ∆mP values for each well were calculated as the difference between the measured mP and the average of the “probe only” controls. […] The parallel and perpendicular mP values were also used to calculate total fluorescence intensity (TFI) determined by the sum of parallel mP + (2 x perpendicular mP). TFI was used to detect fluorescence interference by compounds [1]. […] IC50 values were calculated using the four parameter logistic equation in Prism 6.0 (GraphPad). […] KD values were calculated using the one site or two site binding equations in Prism 6.0 (GraphPad). […]
# human RPA70AB = target: T2, human RPA70AB (Homo sapiens, UniProt P27694); assay: FP saturation binding of probe to RPA70AB; conditions: probe 12.5 nM, mean ± SEM, n = 3, listed as 5′-6FAM DNA probe
# T2 construct: recombinant human RPA70AB (181-422) in a pSV281 vector; 6xHis (TEV site) (N, cleaved yes); made in house; host or cells: Escherichia coli BL21(DE3)
# T2 sequence (P27694 181-422): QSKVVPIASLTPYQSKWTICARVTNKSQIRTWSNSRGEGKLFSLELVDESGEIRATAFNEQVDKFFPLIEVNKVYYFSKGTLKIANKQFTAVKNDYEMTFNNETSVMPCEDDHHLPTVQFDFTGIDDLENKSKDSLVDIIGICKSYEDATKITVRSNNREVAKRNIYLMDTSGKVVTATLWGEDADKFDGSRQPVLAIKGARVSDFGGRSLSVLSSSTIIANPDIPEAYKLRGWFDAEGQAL
# Method: as §1
substance,measurement,setting,value
"5′-6-FAM-ATGGTAGGCA (DNA, 5' {FAM}, backbone and methylation of C not given here) [5’-6-FAM 10-mer ssDNA, 5′-6-carboxyfluorescein 10-mer DNA FP probe]",KD of FP probe for hMcm10-ID,hMcm10-ID,low micromolar affinity
same,Kd,human RPA70AB,0.4 µM
